Assay results published in ChEMBL document CHEMBL4184308, “Melanogenesis inhibitory pregnane glycosides from Cynanchum atratum” (Bioorg Med Chem Lett, 2018).
Active and inactive are the calls of the source. The calls are words filed in the database; no cut-off is given here.

Columns and labels:
B16 = assay: Inhibition of melanin production in alpha-MSH-stimulated mouse B16 cells incubated for 24 hrs followed by alpha-MSH stimulation for 72 hrs in presence of compound; assay type: functional, cell-based
[1] = molecular target: T1, Tyrosinase (Mus musculus) (UniProt P11344); assay: Inhibition of mouse tyrosinase
T1 sequence (whole entry): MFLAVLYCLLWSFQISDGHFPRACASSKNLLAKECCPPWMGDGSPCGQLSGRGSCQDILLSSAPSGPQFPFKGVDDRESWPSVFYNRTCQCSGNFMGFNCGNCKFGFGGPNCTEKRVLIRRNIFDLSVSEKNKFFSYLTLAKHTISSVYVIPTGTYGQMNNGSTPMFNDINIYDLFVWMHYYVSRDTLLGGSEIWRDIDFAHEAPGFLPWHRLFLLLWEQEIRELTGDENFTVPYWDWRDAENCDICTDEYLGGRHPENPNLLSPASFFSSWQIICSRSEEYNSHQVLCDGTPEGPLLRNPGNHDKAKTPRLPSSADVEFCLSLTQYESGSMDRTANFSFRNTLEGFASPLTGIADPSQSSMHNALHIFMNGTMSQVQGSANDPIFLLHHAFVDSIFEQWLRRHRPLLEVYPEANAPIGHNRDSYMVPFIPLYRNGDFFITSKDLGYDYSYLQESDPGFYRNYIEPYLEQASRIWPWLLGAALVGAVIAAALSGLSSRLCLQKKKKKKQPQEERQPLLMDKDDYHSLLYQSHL

[2] = molecular target: T1, Tyrosinase (Mus musculus); assay: Inhibition of mouse B16 cells derived tyrosinase at 30 uM

CO[C@H]1O[C@@]2(C)OC[C@H]3OC(=O)[C@@H]4CC=C5C[C@@H](O[C@@H]6O[C@H](C)[C@@H](O)[C@H](OC)[C@H]6O)CC[C@]5(C)[C@H]4C/C=C/1[C@H]32
IC50 (B16): 41 µM

CC(=O)c1c(O)cccc1O
inhibition [1]: Active

CO[C@H]1C[C@H](O[C@@H]2[C@H](C)O[C@@H](O[C@H]3[C@@H](OC)C[C@H](O[C@@H]4CC5=CC[C@H]6C(=O)[C@@](C)(C7=CC(=O)O[C@@H]7C)CC[C@@H]6[C@@]5(C)C[C@H]4O)O[C@@H]3C)C[C@@H]2OC)O[C@H](C)[C@H]1O
IC50 (B16): 33 µM
inhibition (B16): Dose-dependent effect

CO[C@H]1C[C@H](O[C@@H]2CC3=CC[C@H]4C(=O)[C@@](C)(C5=CC(=O)O[C@H]5C)CC[C@@H]4[C@@]3(C)C[C@H]2O)O[C@H](C)[C@H]1O
IC50 (B16): > 50 µM

CO[C@@H]1[C@@H](O)[C@H](O[C@H]2CC[C@@]3(C)C(=CC[C@H]4C(=O)O[C@@H]5CO[C@]6(C)OC(=O)/C(=C/C[C@@H]43)[C@H]56)C2)O[C@H](C)[C@H]1O
IC50 (B16): > 50 µM

CO[C@H]1C[C@H](O[C@@H]2[C@H](C)O[C@@H](O[C@H]3[C@@H](OC)C[C@H](O[C@@H]4CC5=CC[C@H]6C(=O)[C@@](C)(C7=CC(=O)O[C@H]7C)CC[C@@H]6[C@@]5(C)C[C@H]4O)O[C@@H]3C)C[C@@H]2OC)O[C@H](C)[C@H]1O
IC50 (B16): 21 µM
inhibition (B16): Dose-dependent effect
inhibition [2]: inactive

CO[C@H]1[C@@H](O)[C@H](O[C@H]2CC[C@@]3(C)C(=CC[C@H]4C(=O)O[C@@H]5CO[C@]6(C)OC=C(CC[C@@H]43)[C@H]56)C2)O[C@H](C)[C@H]1O[C@H]1C[C@H](OC)[C@H](O[C@H]2C[C@H](OC)[C@H](O)[C@@H](C)O2)[C@H](C)O1
IC50 (B16): 4 µM
inhibition (B16): Dose-dependent effect

CO[C@H]1[C@@H](O)[C@H](O[C@H]2CC[C@@]3(C)C(=CC[C@H]4C(=O)O[C@@H]5CO[C@]6(C)OC=C(CC[C@@H]43)[C@H]56)C2)O[C@H](C)[C@H]1O[C@H]1C[C@H](OC)[C@H](O)[C@H](C)O1
IC50 (B16): 19 µM
inhibition (B16): Dose-dependent effect

CC(=O)c1cc(O)ccc1O
inhibition [1]: Active
